From US8415342B2, “Besifloxacin ophthalmic composition for the treatment or control of infection” (Bausch & Lomb Incorporated, priority 2008, dated 2013)
Values after ≈ are worked out from the molar mass of the structure shown. Like-named read-outs stand apart in the source and are kept apart here.

Columns and labels:
Format in all cases: cell-based
[1] = system: Staphylococcus saprophyticus; test: MIC, CLSI broth microdilution, clinical isolates; conditions: Staphylococcus saprophyticus (N = 101)
Streptococcus pyogenes = test: MIC, CLSI broth microdilution, clinical isolates; conditions: Streptococcus pyogenes (N = 101)
Klebsiella oxytoca = test: MIC, CLSI broth microdilution, clinical isolates; conditions: Klebsiella oxytoca (N = 50)
Morganella morganii = test: MIC, CLSI broth microdilution, clinical isolates; conditions: Morganella morganii (N = 51)
Legionella pneumophila = test: microbe, parasite or virus in culture
Citrobacter koseri = test: MIC, CLSI broth microdilution, clinical isolates; conditions: Citrobacter koseri (N = 100)
Haemophilus influenzae = test: MIC, CLSI broth microdilution, clinical isolates; conditions: for MIC50 / MIC90: Haemophilus influenzae
Staphylococcus hominis = test: MIC, CLSI broth microdilution, clinical isolates; conditions: Staphylococcus hominis (N = 50)
Staphylococcus warneri = test: MIC, CLSI broth microdilution, clinical isolates; conditions: Staphylococcus warneri (N = 50)
[2] = system: Staphylococcus lugdunensis; test: MIC, CLSI broth microdilution, clinical isolates; conditions: Staphylococcus lugdunensis (N = 15)
Viridans streptococci = test: MIC, CLSI broth microdilution, clinical isolates; conditions: Viridans streptococci (N = 156)
[3] = system: Staphylococcus epidermidis; test: MIC, CLSI broth microdilution, clinical isolates; conditions: for MIC50: Staphylococcus epidermidis
Streptococcus agalactiae = test: MIC, CLSI broth microdilution, clinical isolates; conditions: Streptococcus agalactiae (N = 100)
Moraxella catarrhalis = test: MIC, CLSI broth microdilution, clinical isolates; conditions: Moraxella catarrhalis (N = 101)
[4] = system: Staphylococcus haemolyticus; test: MIC, CLSI broth microdilution, clinical isolates; conditions: Staphylococcus haemolyticus (N = 101)
[5] = system: Lancefield group C, F, G streptococci; test: MIC, CLSI broth microdilution, clinical isolates; conditions: G streptococci (N = 50)
Staphylococcus aureus = test: MIC, CLSI broth microdilution, clinical isolates; conditions: for MIC50 / MIC90: Staphylococcus aureus
Streptococcus pneumoniae = test: MIC, CLSI broth microdilution, clinical isolates
[6] = Haemophilus influenzae (all phenotypes, N = 40)
[7] = Haemophilus influenzae (bla negative, N = 24)
[8] = Haemophilus influenzae (bla positive, N = 16)
[9] = Staphylococcus epidermidis (CNS, N = 6)
[10] = Staphylococcus epidermidis (CS, N = 9)
[11] = Staphylococcus epidermidis (MSSE, N = 6)
[12] = Staphylococcus epidermidis (all phenotypes, N = 15)
[13] = Staphylococcus aureus (CNS, N = 16)
[14] = Staphylococcus aureus (CS, N = 14)
[15] = Staphylococcus aureus (all phenotypes, N = 30)
[16] = MRSA, Staphylococcus aureus (MRSA, N = 11)
[17] = MSSA, Staphylococcus aureus (MSSA, N = 19)
[18] = Streptococcus pneumoniae (PISP, N = 2)
[19] = Streptococcus pneumoniae (PRSP, N = 2)
[20] = Streptococcus pneumoniae (PSSP, N = 31)
[21] = Streptococcus pneumoniae (all phenotypes, N = 35)

## C[C@H]1COc2c(N3CCN(C)CC3)c(F)cc3c(=O)c(C(=O)O)cn1c23 [Levofloxacin]
[1]
  % S: 100.0%
  MIC50: 0.5 µg/mL (≈ 1.38 µM)
  MIC90: 0.5 µg/mL (≈ 1.38 µM)
  MIC Range: 0.06 to 0.5 µg/mL
Streptococcus pyogenes
  % S: 100.0%
  MIC Range: 0.25 to 2 µg/mL
Streptococcus pyogenes; read-out: MIC50
  MIC50: 0.5 µg/mL (≈ 1.38 µM)
Streptococcus pyogenes; read-out: MIC90
  MIC90: 0.5 µg/mL (≈ 1.38 µM)
Klebsiella oxytoca
  % S: 90.0%
  MIC50: 0.03 µg/mL (≈ 0.083 µM)
  MIC90: 0.5 µg/mL (≈ 1.38 µM)
  MIC Range: 0.015 to 8 µg/mL
Morganella morganii
  % S: 76.5%
  MIC50: 0.06 µg/mL (≈ 0.166 µM)
  MIC90: 8 µg/mL (≈ 22.1 µM)
Legionella pneumophila; Legionella pneumophila
  MIC50: 0.03 µg/mL (≈ 0.083 µM)
  MIC90: 0.03 µg/mL (≈ 0.083 µM)
Legionella pneumophila; Legionella pneumophila (N = 50)
  MIC Range: 0.015 to 0.06 µg/mL
Citrobacter koseri
  % S: 99.0%
  MIC50: 0.03 µg/mL (≈ 0.083 µM)
  MIC90: 0.12 µg/mL (≈ 0.332 µM)
Haemophilus influenzae; [6]
  % S: 100.0%
  MIC Range: 0.008 to 0.015 µg/mL
  MIC50: 0.015 µg/mL (≈ 0.0415 µM)
  MIC90: 0.015 µg/mL (≈ 0.0415 µM)
Haemophilus influenzae; [7]
  % S: 100.0%
  MIC Range: 0.008 to 0.015 µg/mL
  MIC50: 0.015 µg/mL (≈ 0.0415 µM)
  MIC90: 0.015 µg/mL (≈ 0.0415 µM)
Haemophilus influenzae; [8]
  % S: 100.0%
  MIC Range: 0.015-0.015 μg/mL
  MIC50: 0.015 µg/mL (≈ 0.0415 µM)
  MIC90: 0.015 µg/mL (≈ 0.0415 µM)
Staphylococcus hominis
  % S: 30.0%
  MIC50: 8 µg/mL (≈ 22.1 µM)
  MIC90: > 8 µg/mL
Staphylococcus warneri
  % S: 76.0%
  MIC50: 0.12 µg/mL (≈ 0.332 µM)
  MIC90: > 8 µg/mL
[2]
  % S: 66.7%
  MIC50: 0.25 µg/mL (≈ 0.692 µM)
  MIC90: > 8 µg/mL
Viridans streptococci
  % S: 95.5%
Viridans streptococci; read-out: MIC50
  MIC50: 1 µg/mL (≈ 2.77 µM)
Viridans streptococci; read-out: MIC90
  MIC90: 1 µg/mL (≈ 2.77 µM)
[3]; [9]
  % S: 0.0%
  MIC50: 8 µg/mL (≈ 22.1 µM)
[3]; [10]
  % S: 100.0%
  MIC Range: 0.12-0.12 μg/mL
  MIC50: 0.12 µg/mL (≈ 0.332 µM)
[3]; Staphylococcus epidermidis (MRSE, N = 9)
  % S: 44.4%
[3]; [11]
  % S: 83.3%
  MIC Range: 0.12 to 8 µg/mL
  MIC50: 0.12 µg/mL (≈ 0.332 µM)
[3]; [12]
  % S: 60.0%
  MIC90: > 8 µg/mL
  MIC50: 0.12 µg/mL (≈ 0.332 µM)
[3]; MRSE, Staphylococcus epidermidis (MRSE, N = 9)
  MIC50: 2 µg/mL (≈ 5.53 µM)
Streptococcus agalactiae
  % S: 98.0%
  MIC Range: 0.25 to 4 µg/mL
Streptococcus agalactiae; read-out: MIC50
  MIC50: 0.5 µg/mL (≈ 1.38 µM)
Streptococcus agalactiae; read-out: MIC90
  MIC90: 1 µg/mL (≈ 2.77 µM)
Moraxella catarrhalis
  % S: 100.0%
  MIC50: 0.015 µg/mL (≈ 0.0415 µM)
  MIC90: 0.03 µg/mL (≈ 0.083 µM)
  MIC Range: 0.015 to 0.5 µg/mL
[4]
  % S: 39.6%
  MIC50: 4 µg/mL (≈ 11.1 µM)
  MIC90: > 8 µg/mL
[5]
  % S: 98.0%
  MIC Range: 0.12 to 8 µg/mL
[5]; read-out: MIC50
  MIC50: 0.5 µg/mL (≈ 1.38 µM)
[5]; read-out: MIC90
  MIC90: 0.5 µg/mL (≈ 1.38 µM)
Staphylococcus aureus; [13]
  % S: 12.5%
  MIC50: 4 µg/mL (≈ 11.1 µM)
  MIC90: > 8 µg/mL
Staphylococcus aureus; [14]
  % S: 92.9%
  MIC Range: 0.06 to 2 µg/mL
  MIC50: 0.12 µg/mL (≈ 0.332 µM)
  MIC90: 0.25 µg/mL (≈ 0.692 µM)
Staphylococcus aureus; Staphylococcus aureus (MRSA, N = 11)
  % S: 18.2%
Staphylococcus aureus; Staphylococcus aureus (MSSA, N = 19)
  % S: 68.4%
Staphylococcus aureus; [15]
  % S: 50.0%
  MIC50: 1 µg/mL (≈ 2.77 µM)
  MIC90: > 8 µg/mL
Staphylococcus aureus; [16]
  MIC50: 4 µg/mL (≈ 11.1 µM)
  MIC90: > 8 µg/mL
Staphylococcus aureus; [17]
  MIC50: 0.25 µg/mL (≈ 0.692 µM)
  MIC90: 4 µg/mL (≈ 11.1 µM)
Streptococcus pneumoniae; [18]
  % S: 100.0%
  MIC Range: 0.5 to 1 µg/mL
Streptococcus pneumoniae; [19]
  % S: 100.0%
  MIC Range: 0.5 to 1 µg/mL
Streptococcus pneumoniae; [20]
  % S: 96.8%
  MIC50: 0.5 µg/mL (≈ 1.38 µM)
  MIC90: 1 µg/mL (≈ 2.77 µM)
  MIC Range: 0.5 to 8 µg/mL
Streptococcus pneumoniae; [21]
  % S: 97.1%
  MIC Range: 0.5 to 8 µg/mL
Streptococcus pneumoniae; Streptococcus pneumoniae (all phenotypes, N = 35), read-out: MIC50
  MIC50: 0.5 µg/mL (≈ 1.38 µM)
Streptococcus pneumoniae; Streptococcus pneumoniae (all phenotypes, N = 35), read-out: MIC90
  MIC90: 1 µg/mL (≈ 2.77 µM)
